The values below come from US7056663B2, “Prognostic methods for breast cancer” (California Pacific Medical Center, priority 2001, dated 2006).

This assay concerns TRβ1 gene. In words: RT-PCR for TRβ1 transcript in breast cancer cell lines after 5-azaC treatment. In kind it is cell-based. The note with it: MCF7 breast cancer cell line. An excerpt: The region of most common LOH in the experiments described in Example I include the region of the TRβ1 gene. Therefore, we evaluated TRβ1 gene expression in breast cancer cell lines by RT-PCR, using primers encompassing exons 4–7. The primers used for RT-PCR of the TRβ1 transcript were TRβ-F 5′ […] 3′ (forward) (SEQ ID NO:1) and TRβ-R 5′ TGAGCTCCCATTCCTCGTC 3′ (reverse) (SEQ ID NO:2). Presence of a TRβ1 transcript was indicated by the presence of a 500 bp RT-PCR product using template mRNA isolated from non-cancerous or breast cancer cell lines. As a control, corresponding GAPDH transcript levels for each sample was measured within the same PCR reaction mixture by amplifying a 250 bp fragment using the following primers 5′ […] 3′ (forward) (SEQ ID NO:3) and 5′ […] 3′ (reverse) (SEQ ID NO:4). […] Fluorescent in situ hybribization (FISH) analysis was carried out on the cells to determine the copy number of the TRβ1 gene. FISH data is reported as the percentage of cells in which TRβ1 copy number was fewer than the centromeric signal for chromosome 3. The breast cancer cell lines that were used in this study include DU4475, MDA435, SKBR3, MCF7, BT20, MDA157, MDA231, BT474, CAMA1 and T47D. All of these cell lines are available from American Type Culture Collection, Manassas, Va.

`Nc1ncn([C@@H]2O[C@H](CO)[C@@H](O)[C@H]2O)c(=O)n1` [5-azaC]: the “RT-PCR for TRβ1, before versus after 5-aza C treatment” value is “*RT-PCR for MCF7 was the same before and after 5-aza C treatment”.
